Measured values taken from patent US4483869A, “Thiocarnitines, process for their preparation and pharmaceutical compositions containing same” (Sigma-Tau Industrie Farmaceutiche Riunite S.p.A., priority 1980, dated 1984).
Counter-ions that a name gives are not always drawn.

Tests used:
[1] = Acute toxicity in the mouse, Weil's method; details: in vivo, ip
Text: The acute toxicity of the compounds of general formula (I) has been studied in the mouse with the Weil method (Weil C. S., Biometr. J. 8, 249, 1952).
The LD50 values of some compounds illustrated in Table I, indicate that the compounds are remarkably well tolerated.
LD50, mg Kg^-1, ep in mouse of some thiocarnitines of general
formula (I). Weil's method (N = 5, K = 4) Cl = hydrochloride

rats = assay: Protection against X-ray exposure in rats (survival after irradiation); type: in vivo, Albino Wister rats; details: 20-25 mg Kg^-1 1 hour before irradiation; for Percentage of surviving animals, day 10: 10 days from irradiation, control 90; for Percentage of surviving animals, day 20: 20 days from irradiation, control 20; for Percentage of surviving animals, day 30: 30 days from irradiation, control 10
Procedure: The effect of the compounds of formula (I) towards the damages provoked by X-ray exposure was studied.
The experiment animals, Albino Wister rats, treated with the compounds under examination (20-25 mg Kg^-1 1 hour before irradiation) were irradiated and checked over a time period to detect the onset of toxic effects and the time of survival with respect to the control group. […]
Protective effect of some thiocarnitines of general
formula (I) towards the damage provoked by irradiation
in rats. Percentage of surviving animals at
various days from irradiation.

CoA = assay: Transfer of the acetyl group to CoA / acyl group donor; type: biochemical
acetylcholine = assay: Formation of acetylcholine
[2] = Crossing of the blood-brain barrier
rabbit = assay: Cutaneous regeneration from burns in the rabbit; type: in vivo; details: 20 mg Kg^-1 orally once a day for seven days; for Percentage of regenerated tissue, 4th day: control 20; for Percentage of regenerated tissue, 8th day: control 50
Procedure: The ability of the compounds of formula (I) to speed up the cutaneous regeneration from burns has been tested in the rabbit.
A 4 cm^2 cutaneous area of the average-top zone of the test animal back was burned.
The compounds were orally administered in aqueous solution at the dose of 20 mg Kg^-1 once a day for seven days. The area of cutaneous regeneration i.e. the area of the newly formed tissue, was then measured (Table III).
Effect of compounds of formula (I) on cutaneous
regeneration. Percentage of regenerated tissue at the 4th
and 8th day from treatment.

[3] = Hygroscopicity and stability to the atmosphere of the isolated product; type: physicochemical; details: for hygroscopicity: isolated product
[4] = "ep" route, Weil's method (N = 5, K = 4)

| SMILES | LD50 [1, 4] [mg/kg] | Percentage of surviving animals, day 10 (rats) [Percentage] | Percentage of surviving animals, day 20 (rats) [Percentage] | Percentage of surviving animals, day 30 (rats) [Percentage] | acyl group donor activity (CoA) | transfer of the acetyl group to CoA (CoA; in the absence of CoA carnitine acetyl transferase) | formation of acetylcholine (acetylcholine) | ability to cross the blood-brain barrier [2] | Percentage of regenerated tissue, 4th day (rabbit) [Percentage] | Percentage of regenerated tissue, 8th day (rabbit) [Percentage] | LD50 [1] [mg/kg] | hygroscopicity [3] | stability upon exposure to the atmosphere ([3]; exposure to the atmosphere) |
| --- | --- | --- | --- | --- | --- | --- | --- | --- | --- | --- | --- | --- | --- |
| CC(=O)SC(CC(=O)O)C[N+](C)(C)C (centres unmarked) [S--acetyl thiocarnitine Cl, S-acetyl thiocarnitine hydrochloride] | 294 | 100 | 70 | 60 | potent acyl group donor | able to transfer the acetyl group to CoA directly even in the absence of the enzyme | promotes the formation of acetylcholine | able to cross the blood-brain barrier | 50 | 90 |  |  |  |
| CCCC(=O)SC(CC(=O)O)C[N+](C)(C)C (centres unmarked) [S--butyryl thiocarnitine Cl, S-butyryl thiocarnitine halogenide] |  | 90 | 40 | 40 |  |  |  |  | 20 | 40 | 350 |  |  |
| CCC(CC)C(=O)SC(CC(=O)O)C[N+](C)(C)C (centres unmarked) [S--diethylacetyl thiocarnitine Cl, S-diethylacetyl thiocarnitine] | 295 | 80 | 60 | 30 |  |  |  |  | 50 | 60 |  | highly hygroscopic |  |
| CCCC(CCC)C(=O)SC(CC(=O)O)C[N+](C)(C)C (centres unmarked) [S--dipropylacetyl thiocarnitine Cl, S-dipropylacetil thiocarnitine hydrochloride] |  | 90 | 70 | 50 |  |  |  |  | 50 | 100 | 350 |  |  |
| CC(O)CC(=O)SC(CC(=O)O)C[N+](C)(C)C (stereo not drawn) [S--hydroxybutyryl thiocarnitine Cl, S-beta hydroxybutyryl thiocarnitine] | 300 | 100 | 80 | 60 |  |  |  |  | 30 | 60 |  | very hygroscopic |  |
| CCC(=O)SC(CC(=O)O)C[N+](C)(C)C (centres unmarked) [S--propionyl thiocarnitine Cl, S-propionyl thiocarnitine halogenide] |  | 90 | 70 | 50 |  |  |  |  | 30 | 70 | 302 |  |  |
| C[N+](C)(C)CC(S)CC(=O)O (centres unmarked) [Thiocarnitine, thiocarnitine hydrochloride] | 150 | 95 | 60 | 50 |  |  |  |  | 40 | 90 |  | very hygroscopic | darkened upon exposure to the atmosphere |
